Consider four molecules from patent US20070054927A1, “Fungicidal mixtures” (BASF AKTIENGESELLSCHAFT, priority 2003, published 2007).

This assay relates to Plasmopara viticola. The assay is described as follows: activity against peronospora of grapevines caused by Plasmopara viticola, protective application. Type of assay: in vivo. Conditions: individual active compound, potted vines Müller-Thurgau, untreated control 71% infection. Here is the method: The active compounds, separately or jointly, were prepared as a stock solution comprising 0.25% by weight of active compound in acetone or DMSO. 1% by weight of the emulsifier Uniperol® EL (wetting agent having emulsifying and dispersant action based on ethoxylated alkylphenols) was added to this solution, and the mixture was diluted with water to the desired concentration.
Use example—activity against peronospora of gravevines caused by Plasmopara viticola, protective application
Leaves of potted vines of the cultivar “Müller-Thurgau” were sprayed to runoff point with an aqueous suspension having the concentration of active compound stated below. The next day, the undersides of the leaves were inoculated with an aqueous zoospore suspension of Plasmopara viticola. The grapevines were then initially placed in a water-vapor-saturated chamber at 24° C. for 48 hours and then in a greenhouse at 20-30° C. for 5 days. After this period of time, the plants were again placed in a humid chamber for 16 hours to promote sporangiophore eruption. The extent of the development of the disease on the undersides of the leaves was then determined visually.
The visually determined percentages of infected leaf areas were converted into efficacies in % of the untreated control:
The efficacy (E) is calculated as follows using Abbot's formula: E=(1−α/β)·100 • α corresponds to the fungicidal infection of the treated plants in % and • β corresponds to the fungicidal infection of the untreated (control) plants in %
An efficacy of 0 means that the infection level of the treated plants corresponds to that of the untreated control plants; an efficacy of 100 means that the treated plants were not infected.
The expected efficacies of mixtures of active compounds were determined using Colby's formula (Colby, S. R. “Calculating synergistic and antagonistic responses of herbicide combinations”, Weeds, 15, 20-22, 1967) and compared with the observed efficacies.
Colby's formula: E=x+y−x·y/100 • E expected efficacy, expressed in % of the untreated control, when using the mixture of the active compounds A and B at the concentrations a and b • x efficacy, expressed in % of the untreated control, when using the active compound A at the concentration a • y efficacy, expressed in % of the untreated control, when using the active compound B at the concentration b

As to `CC1CCN(c2c(-c3c(F)cc(F)cc3F)c(Cl)nc3ncnn23)CC1` [I, 5-chloro-7-(4-methylpiperidin-1-yl)-6-(2,4,6-trifluorophenyl)-[1,2,4]triazolo[1,5-a]pyrimidine], the “Efficacy in % of the untreated control” value is, setting by setting: (4 ppm in the spray liquor) 1%; (16 ppm in the spray liquor) 44%.

In the case of `C[C@H](Nc1c(-c2c(F)cc(F)cc2F)c(Cl)nc2ncnn12)C(F)(F)F` [comparative compound B], the “Efficacy in % of the untreated control” value is listed as 15% (4 ppm in the spray liquor) and 29% (16 ppm in the spray liquor).

`CC1(C)CCC(Cc2ccc(Cl)cc2)C1(O)Cn1cncn1` (centres unmarked) [II (metconazole), 5-(4-chlorobenzyl)-2,2-dimethyl-1-[1,2,4]triazol-1-ylmethylcyclopentanol]: the “Efficacy in % of the untreated control” value (4 ppm in the spray liquor) was determined as 1% and the “Efficacy in % of the untreated control” value (16 ppm in the spray liquor) is listed as 1%.

Regarding `CC1CCN(c2c(-c3c(F)cccc3Cl)c(Cl)nc3ncnn23)CC1` [comparative compound A], the “Efficacy in % of the untreated control” value by setting is: (4 ppm in the spray liquor) 0%; (16 ppm in the spray liquor) 15%.
